Test results reported in patent publication EP0082023A2, “Thienopyrimidine derivatives, their preparation and their medical use” (SANKYO COMPANY LIMITED, priority 1981, dated 1983).

What was measured:
[1] = test system: male mice of the ddY strain; experiment: Hypoglycaemic activity in mice after glucose loading; type: in vivo; conditions: Mus musculus, po, 0.5 h; blood sugar concentration vs positive control group; 10 mg/kg orally, 1.2 g/kg D-glucose orally 10 minutes later, blood collected 30 minutes after D-glucose; groups of 6 mice; read-out: Inhibitory rate, R%
Experimental: In this experiment, the hypoglycaemic activity of various of the compounds of the invention was measured in mice after loading a large quantity of glucose. The test animals were male mice of the ddY strain having a body weight of from 25 to 27 g. Each experiment was carried out on a group of 6 mice.
Each test compound was administered orally in an amount of 10 mg/kg to the mouse followed, 10 minutes later, by the oral administration of 1.2 g/kg of D-glucose. 30 minutes after administration of the D-glucose, blood was collected from each mouse and the blood sugar.concentration was measured using a commercially available kit ("New Blood Sugar Test", a product of Boehringer-Mannheim Yamanouchi Pharmaceutical Co. Ltd,). The inhibitory rate, R, was calculated from the following formula: [formula] in which A represents the blood sugar concentration of a positive control group and B represents the blood sugar concentration of the group to which the test compound was administered. As a control, the experiment was also carried out with: the known hypoglycaemic agent, tolbutamide; 2-(2-aminoethylamino)-4-morpholinothieno[2,3-d]pyrimidine (named "VK-744"), a compound disclosed in German Offenlegungsschrift No. 2,200,764; and 4-isopropylamino-2-piperidinothieno[2,3-d]-pyrimidine (hereinafter referred to as "ICI-154"), a compound disclosed in U.S. Patent Specification No. 4,146,716.

platelet aggregation = experiment: Inhibition of collagen-induced platelet aggregation in platelet-rich plasma; type: cell-based; conditions: rabbit PRP, incubated 2 minutes, collagen 5 ug/ml
Experimental: The ability of various compounds of the present invention to inhibit platelet aggregation was measured using rabbit blood.
9 volumes of blood collected from male rabbit hearts and 1 volume of a 3.8% w/v aqueous solution of sodium citrate were mixed, placed in a centrifugal separator and subjected to centrifugation under 150 G for 15 minutes to give a platelet-rich-plasma (PRP). 250 pl of this PRP were placed in a cuvette and incubated for 2 minutes with a test compound at the concentration shown in Table 2. To the mixture was then added a collagen solution to a final concentration of 5 ug/ml, to induce aggregation. The aggregation was measured using an aggregometer produced by Rikadenki Co. Ltd. The inhibitory rate R' was calculated from the following formula: [formula] in which A' represents the maximum aggregation rate when only a solvent was added and B' represents the maximum aggregation rate when the test compound was added.
For comparison, the experiment was also carried out using as the test compound VK-744, of German Offenlegungsschrift No. 2,200,764, and ICI-154 of U.S. Patent Specification No. 4,146,716.

[2] = test system: male mice of the ddY strain; experiment: Diuretic activity in mice (urine volume and sodium ion concentration); type: in vivo; conditions: urine collected for 2 hours after administration, increase over control group
Experimental: The animals employed in this test were male mice of the ddY strain, each having a body weight of from 26 g to 30 g. The mice were employed in groups of five for each test. Each test compound was suspended in a 0.3% carboxymethylcellulose saline solution and administered orally in the dose shown in Table 3 to the mouse. For the period of 2 hours after administration, the urine was collected and the urine volume and concentration of sodium ions were measured. […] The compounds tested were Compound No. 3 of the present invention and hydrochlorothiazide (abbreviated as "HCT").

| Structure (SMILES) | inhibition in vivo at 10 mg/kg [1] [%] | other results |
| --- | --- | --- |
| NCCNc1nc(N2CCOCC2)c2ccsc2n1 [VK-744, 2-(2-aminoethylamino)-4-morpholinothieno[2,3-d]pyrimidine, reference compound] | 19 | – |
| CNc1nc(N2CCNCC2)nc2sccc12 [compound 49, 4-Methylamino-2-(1-piperazinyl)thieno[2,3-d]pyrimidine] | 32 | – |
| CCc1cc2c(N(CC)CC)nc(N3CCNCC3)nc2s1 [Compound No. 39, 4-Diethylamino-6-ethyl-2-(1-piperazinyl)thieno[2,3-d]-pyrimidine] | 19.4 | – |
| CC(C)Nc1nc(N2CCCCC2)nc2sccc12 [ICI-154, 4-isopropylamino-2-piperidinothieno[2,3-d]-pyrimidine, reference compound] | 11 | Inhibitory rate, R'% (platelet aggregation; concentration 10^-4 g/ml): < 50% |
| CCc1cc2c(N(CCO)CCO)nc(N3CCNCC3)nc2s1 [compound 62, 4-Bis(2-hydroxyethyl)amino-6-ethyl-2-(1-piperazinyl)-thieno[2,3-d]pyrimidine] | – | Inhibitory rate, R'% (platelet aggregation; concentration 10^-6 g/ml): 65.3% |
| CCCCNC(=O)NS(=O)(=O)c1ccc(C)cc1 [tolbutamide, reference compound] | 2.8 | – |
| CCc1cc2c(N)nc(N3CCN(C)CC3)nc2s1 [Compound No. 73, 4-Amino-6-ethyl-2-(4-methyl-1-piperazinyl)thieno-[2,3-d]pyrimidine] | 34.1 | Inhibitory rate, R'% (platelet aggregation; concentration 3 x 10^-5 g/ml): 100% |
| OCCN(CCO)c1nc(N2CCNCC2)nc2sc3c(c12)CCCC3 [Compound No. 197, 4-Bis(2-hydroxyethyl)amino-2-(1-piperazinyl)-5,6-tetramethylenethieno[2,3-d]pyrimidine] | – | Inhibitory rate, R'% (platelet aggregation; concentration 10^-5 g/ml): 87% |
| CCc1cc2c(NC)nc(N3CCN(C=O)CC3)nc2s1 [Compound No. 99, 6-Ethyl-2-(4-formyl-1-piperazinyl)-4-methylaminothieno-[2,3-d]pyrimidine] | 22.1 | – |
| CCc1cc2c(N)nc(N3CCNCC3)nc2s1 [Compound No. 8, 4-Amino-6-ethyl-2-(1-piperazinyl)thieno[2,3-d]-pyrimidine] | 34 | – |
| CCc1cc2c(N)nc(N3CCN(C=O)CC3)nc2s1 [Compound No. 84, 4-Amino-6-ethyl-2-(4-formyl-1-piperazinyl)thieno-[2,3-d]pyrimidine] | 39.3 | – |
| Cc1csc2nc(N3CCNCC3)nc(N)c12 [Compound No. 3, 4-Amino-5-methyl-2-(1-piperazinyl)thieno[2,3-d]-pyrimidine] | 32.4 | Percent increase in Na^+ conc. ([2]; dose 100 mg/kg orally): +51%; Percent increase in Urine volume ([2]; dose 100 mg/kg orally): +76%; Inhibitory rate, R'% (platelet aggregation; concentration 10^-5 g/ml): 82.4% |
| CCc1cc2c(NCCN)nc(N3CCNCC3)nc2s1 [Compound No. 66, 4-(2-Aminoethylamino)-6-ethyl-2-(1-piperazinyl)-thieno[2,3-d]pyrimidine] | 32.9 | Inhibitory rate, R'% (platelet aggregation; concentration 3 x 10^-5 g/ml): 100% |
| CCc1cc2c(NC)nc(N3CCNCC3)nc2s1 [Compound No. 21, 6-Ethyl-4-methylamino-2-(1-piperazinyl)thieno[2,3-d]-pyrimidine] | 20 | – |
| CNc1nc(N2CCNCC2)nc2scc(C)c12 [Compound No. 16, 5-Methyl-4-methylamino-2-(1-piperazinyl)thieno[2,3-d]-pyrimidine] | 43.9 | – |
| CCc1cc2c(NCCO)nc(N3CCNCC3)nc2s1 [Compound No. 54, 6-Ethyl-4-(2-hydroxyethylamino)-2-(1-piperazinyl)-thieno[2,3-d]pyrimidine] | – | Inhibitory rate, R'% (platelet aggregation; concentration 10^-6 g/ml): 66.1% |
| NS(=O)(=O)c1cc2c(cc1Cl)NCNS2(=O)=O [HCT, hydrochlorothiazide, reference compound] | – | Percent increase in Na^+ conc. ([2]; dose 30 mg/kg orally): +93%; Percent increase in Urine volume ([2]; dose 30 mg/kg orally): +43% |
